Consider 18 substances from patent publication US4831026A, “2-oxa-isocephem compounds, compositions containing same and processes of using” (Otsuka Pharmaceutical Co., Ltd., priority 1985, dated 1989).

Like-named read-outs stand apart in the source and are kept apart here. Where only a bound is given, the exact number is not on record here.

The subject of assay [1] is M. morganii ATCC-25830. Nature of the assay: Antimicrobial activity test: MIC by the agar plate dilution method, M. morganii ATCC-25830. The class given is cell-based. To be noted: inoculum 1×10^6 cells/ml. On the procedure: (§1) In order to investigate the in vitro activity of the under-mentioned compounds against various bacteria, the minimal inhibitory concentration (MIC) values were determined by the agar plate dilution method [see Chemotherapy, 22, 1126-1128 (1974)].
(§2) Each test inoculum was adjusted to 1×10^6 cells/ml (O.D., 600 mμ: 0.07-0.16).

Assay [2] deals with P. mirabilis 1287. Nature of the assay: Antimicrobial activity test: MIC by the agar plate dilution method, P. mirabilis 1287. Type of assay: cell-based. The note with it: P. mirabilis 1287; inoculum 1×10^6 cells/ml. The method, then: as §1, §2
Assay [3] deals with E. coli No. 29. Nature of the assay: Antimicrobial activity test: MIC by the agar plate dilution method, E. coli No. 29. Type of assay: cell-based. The method, then: as §1, §2
Assay [4] relates to S. marcescens IFO-12648. Description: Antimicrobial activity test: MIC by the agar plate dilution method, S. marcescens IFO-12648. The class given is cell-based. On the procedure:
as §1, §2

The test system of assay [5] is P. aeruginosa NCTC-10490. Nature of the assay: Antimicrobial activity test: MIC by the agar plate dilution method, P. aeruginosa NCTC-10490. The class given is cell-based. The note with it: inoculum 1×10^6 cells/ml. On the procedure: as §1, §2
Assay [6] has as its system K. pneumoniae NCTC-9632. Nature of the assay: Antimicrobial activity test: MIC by the agar plate dilution method, K. pneumoniae NCTC-9632. Type of assay: cell-based. The note with it: inoculum 1×10^6 cells/ml. The method, then:
as §1, §2

The test system of assay [7] is S. aureus FDA-209-p. Description: Antimicrobial activity test: MIC by the agar plate dilution method, S. aureus FDA-209-p. The note with it: inoculum 1×10^6 cells/ml. Type of assay: cell-based, Staphylococcus aureus. The method, then:
as §1, §2

[8] abbreviates: E. coli No. 29, inoculum 1×10^6 cells/ml.
The mark [9] stands for this setting: S. marcescens IFO-12648, inoculum 1×10^6 cells/ml.

Regarding “7-[2-(2-Aminothiazol-4-yl)-2-(2-fluoroethoxy)iminoacetamido]-3-[(1,3,4-thiadiazol-2-yl)thiomethyl-]-Δ^3 -O-2-isocephem-4-carboxylic acid trifluoroacetate (syn-isomer) [Example 49]”, the minimal inhibitory concentration (MIC) is at most 0.025 µg/mL in assay [1]; at most 0.025 µg/mL in assay [2]; at most 0.025 µg/mL in assay [3] (setting [8]); 0.1 µg/mL in assay [4] (setting [9]); 1.56 µg/mL in assay [5]; at most 0.025 µg/mL in assay [6].
Turning to “7-[2-(2-Aminothiazol-4-yl)-2-[(pyrazol-3-yl)methoxyiminoacetamido]-3-[(1,3,4-thiadiazol-2-yl)thiomethyl]-Δ^3 -O-2-isocephem-4-carboxylic acid dihydrochloride (syn-isomer) [Example 24]”, the MIC in assay [1] is 0.1 µg/mL; in assay [2], at most 0.025 µg/mL; in assay [3], 0.39 µg/mL; in assay [4] it was 0.39 µg/mL; in assay [5], 12.5 µg/mL; in assay [6] it was 0.39 µg/mL.
“7-[2-(2-Chloroacetamidothiazol-4-yl)-2-methoxyiminoacetamido]-3-[(1,3,4-thiadiazol-2-yl)thiomethyl]-Δ^3 -O-2-isocephem-4-carboxylic acid (syn-isomer) [Example 11]”: the MIC in assay [1] is at most 0.025 µg/mL; in assay [2], at most 0.025 µg/mL; in assay [3] (setting [8]), 0.05 µg/mL; in assay [4] (setting [9]) it was 0.2 µg/mL; in assay [5], 6.25 µg/mL; in assay [6], 0.2 µg/mL.
Turning to “(6S,7S)-7-[2-(2-Aminothiazol-4-yl)-2-cyclopropylmethyloxyiminoacetamido]-3- [(1,2,3-thiadiazol-5-yl)thiomethyl]-Δ^3 -O-2-isocephem-4-carboxylic acid (syn-isomer) [Example 65]”, the minimum inhibitory concentration (MIC) in assay [1] is 0.05 µg/mL; in assay [2], 0.2 µg/mL; in assay [3] (setting [8]), 0.1 µg/mL; in assay [4], 0.78 µg/mL; in assay [5], 0.78 µg/mL; in assay [6], 0.39 µg/mL.
In the case of “Benzhydryl 7-[2-(2-formamidothiazol-4-yl)-2-(2-chloroethoxy)iminoacetamido-]-3-[(1,3,4-thiadiazol-2-yl)thiomethyl]-Δ^3 -O-2-isocephem-4-carboxylate (syn-isomer) [Example 32]”, the MIC in assay [1] amounted to 0.1 µg/mL; in assay [2], 0.05 µg/mL; in assay [3] (setting [8]), 0.05 µg/mL; in assay [7] it was 0.39 µg/mL; in assay [4], 0.78 µg/mL; in assay [6] it was 0.1 µg/mL.
With “Benzhydryl 7-[2-(2-tritylaminothiazol-4-yl)-2 -methoxyiminoacetamido]-3-[(1,2,3-thiadiazol-5-yl)thiomethyl]-Δ^3 -O-2-isocephem-4-carboxylate (syn-isomer) [Example 51]”, the minimal inhibitory concentration (MIC) in assay [1] is at most 0.025 µg/mL; in assay [2], at most 0.025 µg/mL; in assay [3] (setting [8]), at most 0.025 µg/mL; in assay [4] (setting [9]) it was 0.1 µg/mL; in assay [5], 0.78 µg/mL; in assay [6], at most 0.025 µg/mL.
For “Benzhydryl 7-[2-(2-tritylaminothiazol-4-yl)-2-[(3-butenyl)oxyimino]acetamido]-3-[(1,3,4-thiadiazol-2-yl)thiomethyl]-Δ^3 -O-2-isocephem-4-carboxylate (syn-isomer) [Example 39]”, the MIC in assay [1] came to 0.39 µg/mL; in assay [2] it was 0.2 µg/mL; in assay [3] (setting [8]), 0.2 µg/mL; in assay [4] it was 0.78 µg/mL; in assay [5] it was 1.56 µg/mL; in assay [6], 0.2 µg/mL.
Turning to “Benzhydryl 7-[2-(2-tritylaminothiazol-4-yl)-2-allyloxyiminoacetamido]-3-[(1,3,4-thiadiazol-2-yl)thiomethyl]-Δ^3 -O-2-isocephem-4-carboxylate (syn-isomer) [Example 43]”, the MIC in assay [1] amounted to 1.56 µg/mL; in assay [2] it was 0.1 µg/mL; in assay [3], 0.39 µg/mL; in assay [4] (setting [9]), 6.25 µg/mL; in assay [5] it was 50 µg/mL; in assay [6], 0.78 µg/mL.
Take “Benzhydryl 7-[2-(2-tritylaminothiazol-4-yl)-2-benzyloxyiminoacetamido]-3-[(1,3,4-thiadiazol-2-yl)thiomethyl]-Δ^3 -O-2-isocephem-4-carboxylate (syn-isomer) [Example 47]”: the minimal inhibitory concentration (MIC) in assay [1] is at most 0.025 µg/mL; in assay [2] it was at most 0.025 µg/mL; in assay [3] (setting [8]) it was at most 0.025 µg/mL; in assay [4] (setting [9]), 0.1 µg/mL; in assay [5] it was 3.13 µg/mL; in assay [6], at most 0.025 µg/mL.
On to “Benzhydryl 7-[2-(2-tritylaminothiazol-4-yl)-2-cyanomethyloxyiminoacetamido]-3-[(1,2,3-thiadiazol-5-yl)thiomethyl]-Δ^3 -O-2-isocephem-4-carboxylate (syn-isomer) [Example 52]”, for which the MIC in assay [1] came out at 0.05 µg/mL; in assay [2] it was 0.1 µg/mL; in assay [3] (setting [8]), 0.1 µg/mL; in assay [4] it was 0.78 µg/mL; in assay [5], 0.39 µg/mL; in assay [6] it was 0.2 µg/mL.
Turning to “Benzhydryl 7-[2-(2-tritylaminothiazol-4-yl)-2-cyclopropylmethyloxyiminoacetamido]-3-[(1,2,3-thiadiazol-5-yl)thiomethyl]-Δ^3 -O-2-isocephem-4-carboxylate (syn-isomer) [Example 53]”, the minimal inhibitory concentration (MIC) in assay [1] is 0.05 µg/mL; in assay [2], 0.1 µg/mL; in assay [3] (setting [8]), 0.05 µg/mL; in assay [4], 0.78 µg/mL; in assay [5], 0.39 µg/mL.
For the substance “Benzhydryl (6S,7S)-7-[2-(2-aminothiazol-4-yl)-2-cyclopropylmethyloxyiminoacetamido]-3-[(1,2,3-thiadiazol-5-yl)thiomethyl]-Δ^3 -O-2-isocephem-4-carboxylate (syn-isomer) [Example 64]”, the minimum inhibitory concentration (MIC) in assay [1] is at most 0.025 µg/mL; in assay [2], at most 0.025 µg/mL; in assay [3] (setting [8]), at most 0.025 µg/mL; in assay [4] (setting [9]), 0.05 µg/mL; in assay [5] it was 1.56 µg/mL; in assay [6], at most 0.025 µg/mL.
With “Benzhydryl (6S,7S)-7-[2-(2-tritylaminothiazol-4-yl)-2-cyclopropylmethyloxyiminoacetamido]-3-[(1,2,3-thiadiazol-5-yl)thiomethyl]-Δ^3 -O-2-isocephem-4-carboxylate (syn-isomer) [Example 63]”, the MIC was at most 0.025 µg/mL in assay [2]; at most 0.025 µg/mL in assay [3] (setting [8]); 0.05 µg/mL in assay [4] (setting [9]); 0.78 µg/mL in assay [5]; at most 0.025 µg/mL in assay [6].
Regarding “Benzhydryl (6S,7S)-7-[2-(2-tritylaminothiazol-4-yl)-2-methoxyiminoacetamido]-3-[(1,3,4-thiadiazol-2-yl)thiomethyl]-Δ^3 -O-2-isocephem-4-carboxylate (syn-isomer) [Example 58]”, the minimal inhibitory concentration (MIC) in assay [2] is at most 0.025 µg/mL; in assay [3] (setting [8]), at most 0.025 µg/mL; in assay [7], 0.39 µg/mL; in assay [4] it was 0.39 µg/mL; in assay [5], 25 µg/mL; in assay [6], at most 0.025 µg/mL.
Regarding “Benzhydryl (6S,7S)-7-[2-(2-tritylaminothiazol-4-yl)- 2-cyanomethoxyiminoacetamido]-3-[(1,3,4-thiadiazol-2-yl)thiomethyl]-Δ^3 -O-2-isocephem-4-carboxylate (syn-isomer) [Example 61]”, the MIC is at most 0.025 µg/mL in assay [1]; at most 0.025 µg/mL in assay [2]; 0.05 µg/mL in assay [3] (setting [8]); 0.78 µg/mL in assay [4]; 3.13 µg/mL in assay [5]; 0.05 µg/mL in assay [6].
For “Benzyl 7-[2-(2-chloroacetamidothiazol-4-yl)-2-methoxyiminoacetamido]-3-[(1,3,4-thiadiazol-2-yl)thiomethyl]-Δ^3 -O-2-isocephem-4-carboxylate (syn-isomer) [Example 10]”, the minimal inhibitory concentration (MIC) in assay [1] stood at 0.2 µg/mL; in assay [2], 0.1 µg/mL; in assay [3] it was 0.39 µg/mL; in assay [7] it was 0.39 µg/mL; in assay [4], 0.39 µg/mL; in assay [6], 0.39 µg/mL.
Turning to “Benzyl 7-[2-(2-chloroacetamidothiazol-4-yl)-2-methoxyiminoacetamido]-3-[(carbamoyloxy)methyl]-Δ^3 -O-2-isocephem-4-carboxylate (syn-isomer) [Example 1]”, the MIC in assay [2] is at most 0.025 µg/mL; in assay [3] (setting [8]), at most 0.025 µg/mL; in assay [4] (setting [9]), 0.1 µg/mL; in assay [5], 3.13 µg/mL.
For “Benzyl 7-[2-(2-chloroacetamidothiazol-4-yl)-2allyloxyiminoacetamido]-3-[(1,3,4-thiadiazol-2-yl)thiomethyl]-Δ^3 -O-2-isocephem-4-carboxylate (syn-isomer) [Example 14]”, the MIC in assay [2] is at most 0.025 µg/mL; in assay [3] (setting [8]), 0.05 µg/mL; in assay [4] (setting [9]), 0.1 µg/mL; in assay [5], 3.13 µg/mL; in assay [6], 0.1 µg/mL.
